Source: the supplement of paper PMC10307832

Legend:
Assay in all cases: relative viability (nuclei count vs DMSO), 5 days (fraction); higher = more cells survive
[1] = tested on: RERF-LC-KJ
Outline: (§1)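 Lung cancer cell lines in 1536-well plates were dosed by pin tool the day after seeding, either with one drug alone or with a fixed anchor-drug dose plus five library-drug doses (not always all listed) in √10 steps. After 5 days, cells were fixed and their nuclei stained in one step (final 0.05% Triton X-100, 1% formaldehyde, 1 ug/ml Hoechst), then counted on 4× images. Relative viability is the nuclei count in treated wells divided by that in vehicle wells. Values are medians of duplicate plates.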

[2] = tested on: LCLC-103H
Outline: as §1

[3] = tested on: NCI-H1563
Outline: as §1

[4] = tested on: SW 900
Outline: as §1

[5] = tested on: NCI-H520
Outline: as §1

[6] = tested on: NCI-H522
Outline: as §1

[7] = tested on: LXF-289
Outline: as §1

[8] = tested on: NCI-H441
Outline: as §1

[9] = tested on: NCI-H727
Outline: as §1

[10] = tested on: NCI-H1792
Outline: as §1

[11] = tested on: PC-14
Outline: as §1

[12] = tested on: NCI-H1355
Outline: as §1

[13] = tested on: NCI-H322M
Outline: as §1

[14] = tested on: NCI-H460
Outline: as §1

[15] = tested on: NCI-H2170
Outline: as §1

[16] = tested on: NCI-H1651
Outline: as §1

[17] = tested on: NCI-H650
Outline: as §1

[18] = tested on: NCI-H2347
Outline: as §1

[19] = tested on: NCI-H1755
Outline: as §1

[20] = tested on: SK-MES-1
Outline: as §1

[21] = tested on: NCI-H596
Outline: as §1

[22] = tested on: NCI-H661
Outline: as §1

[23] = tested on: NCI-H1915
Outline: as §1

[24] = tested on: NCI-H3122
Outline: as §1

**Q.** Which relative viability ([1]; first compound 0.01 µM) does the source give for `CC(C)Oc1cc(Nc2nc(N[C@@H](C)c3ccc(F)cn3)ncc2Cl)n[nH]1` [AZ23] + Cc1nc(Nc2ncc(C(=O)Nc3c(C)cccc3Cl)s2)cc(N2CCN(CCO)CC2)n1 [Dasatinib] (partner 0.075 µM) here?
**A.** The relative viability was 0.91.

**Q.** What about the relative viability ([1]; first compound 0.03162 µM) of the same compound?
**A.** The relative viability was 0.948.

**Q.** What about the relative viability ([1]; first compound 0.3162 µM) of the same compound?
**A.** Its relative viability is 0.891.

**Q.** And the relative viability ([2]; first compound 0.01 µM)?
**A.** The relative viability was 0.443.

**Q.** What about the relative viability ([2]; first compound 0.03162 µM) of the same compound?
**A.** The relative viability was 0.576.

**Q.** And the relative viability ([2]; first compound 0.3162 µM)?
**A.** Its relative viability is 0.499.

**Q.** And the relative viability ([3]; first compound 0.01 µM)?
**A.** Its relative viability is 0.491.

**Q.** What about the relative viability ([3]; first compound 0.03162 µM) of the same compound?
**A.** Its relative viability is 0.533.

**Q.** What about the relative viability ([3]; first compound 0.3162 µM) of the same compound?
**A.** The relative viability was 0.469.

**Q.** What about the relative viability ([4]; first compound 0.01 µM) of the same compound?
**A.** The relative viability was 0.385.

**Q.** And the relative viability ([4]; first compound 0.03162 µM)?
**A.** The relative viability was 0.593.

**Q.** And the relative viability ([4]; first compound 0.3162 µM)?
**A.** Its relative viability is 0.541.

**Q.** And the relative viability ([5]; first compound 0.01 µM)?
**A.** The relative viability was 0.194.

**Q.** What about the relative viability ([5]; first compound 0.03162 µM) of the same compound?
**A.** The relative viability was 0.24.

**Q.** What about the relative viability ([5]; first compound 0.3162 µM) of the same compound?
**A.** Its relative viability is 0.162.

**Q.** What about the relative viability ([6]; first compound 0.01 µM) of the same compound?
**A.** Its relative viability is 0.716.

**Q.** And the relative viability ([6]; first compound 0.03162 µM)?
**A.** Its relative viability is 0.933.

**Q.** And the relative viability ([6]; first compound 0.3162 µM)?
**A.** Its relative viability is 1.02.

**Q.** What about the relative viability ([7]; first compound 0.01 µM) of the same compound?
**A.** The relative viability was 0.205.

**Q.** And the relative viability ([7]; first compound 0.03162 µM)?
**A.** The relative viability was 0.275.

**Q.** And the relative viability ([7]; first compound 0.3162 µM)?
**A.** The relative viability was 0.189.

**Q.** And the relative viability ([8]; first compound 0.01 µM)?
**A.** The relative viability was 0.683.

**Q.** What about the relative viability ([8]; first compound 0.03162 µM) of the same compound?
**A.** Its relative viability is 0.745.

**Q.** And the relative viability ([8]; first compound 0.3162 µM)?
**A.** The relative viability was 0.699.

**Q.** And the relative viability ([9]; first compound 0.01 µM)?
**A.** Its relative viability is 0.393.

**Q.** What about the relative viability ([9]; first compound 0.03162 µM) of the same compound?
**A.** Its relative viability is 0.402.

**Q.** What about the relative viability ([9]; first compound 0.3162 µM) of the same compound?
**A.** Its relative viability is 0.362.

**Q.** What about the relative viability ([10]; first compound 0.01 µM) of the same compound?
**A.** Its relative viability is 0.804.

**Q.** What about the relative viability ([10]; first compound 0.03162 µM) of the same compound?
**A.** Its relative viability is 1.16.

**Q.** And the relative viability ([10]; first compound 0.3162 µM)?
**A.** The relative viability was 0.672.

**Q.** And the relative viability ([11]; first compound 0.03162 µM)?
**A.** Its relative viability is 0.273.

**Q.** What about the relative viability ([11]; first compound 0.3162 µM) of the same compound?
**A.** Its relative viability is 0.246.

**Q.** What about the relative viability ([12]; first compound 0.01 µM) of the same compound?
**A.** Its relative viability is 0.793.

**Q.** What about the relative viability ([12]; first compound 0.03162 µM) of the same compound?
**A.** The relative viability was 0.833.

**Q.** And the relative viability ([12]; first compound 0.3162 µM)?
**A.** Its relative viability is 0.633.

**Q.** What about the relative viability ([13]; first compound 0.03162 µM) of the same compound?
**A.** The relative viability was 0.255.

**Q.** What about the relative viability ([13]; first compound 0.3162 µM) of the same compound?
**A.** Its relative viability is 0.256.

**Q.** What about the relative viability ([14]; first compound 0.01 µM) of the same compound?
**A.** The relative viability was 0.295.

**Q.** And the relative viability ([14]; first compound 0.03162 µM)?
**A.** The relative viability was 0.592.

**Q.** And the relative viability ([14]; first compound 0.3162 µM)?
**A.** Its relative viability is 0.503.

**Q.** And the relative viability ([15]; first compound 0.01 µM)?
**A.** Its relative viability is 0.498.

**Q.** And the relative viability ([15]; first compound 0.03162 µM)?
**A.** Its relative viability is 0.618.

**Q.** And the relative viability ([15]; first compound 0.3162 µM)?
**A.** The relative viability was 0.598.

**Q.** And the relative viability ([16]; first compound 0.03162 µM)?
**A.** Its relative viability is 0.471.

**Q.** And the relative viability ([16]; first compound 0.3162 µM)?
**A.** Its relative viability is 0.386.

**Q.** And the relative viability ([17]; first compound 0.01 µM)?
**A.** Its relative viability is 0.441.

**Q.** What about the relative viability ([17]; first compound 0.03162 µM) of the same compound?
**A.** Its relative viability is 0.46.

**Q.** What about the relative viability ([17]; first compound 0.3162 µM) of the same compound?
**A.** Its relative viability is 0.48.

**Q.** What about the relative viability ([18]; first compound 0.01 µM) of the same compound?
**A.** The relative viability was 0.235.

**Q.** What about the relative viability ([18]; first compound 0.03162 µM) of the same compound?
**A.** The relative viability was 0.298.

**Q.** What about the relative viability ([18]; first compound 0.3162 µM) of the same compound?
**A.** The relative viability was 0.274.

**Q.** What about the relative viability ([19]; first compound 0.01 µM) of the same compound?
**A.** Its relative viability is 0.456.

**Q.** What about the relative viability ([19]; first compound 0.03162 µM) of the same compound?
**A.** The relative viability was 0.488.

**Q.** And the relative viability ([19]; first compound 0.3162 µM)?
**A.** Its relative viability is 0.357.

**Q.** And the relative viability ([20]; first compound 0.03162 µM)?
**A.** The relative viability was 0.275.

**Q.** And the relative viability ([20]; first compound 0.3162 µM)?
**A.** The relative viability was 0.288.

**Q.** What about the relative viability ([21]; first compound 0.01 µM) of the same compound?
**A.** Its relative viability is 0.52.

**Q.** And the relative viability ([21]; first compound 0.03162 µM)?
**A.** Its relative viability is 0.616.

**Q.** And the relative viability ([21]; first compound 0.3162 µM)?
**A.** Its relative viability is 0.557.

**Q.** What about the relative viability ([22]; first compound 0.01 µM) of the same compound?
**A.** Its relative viability is 0.948.

**Q.** And the relative viability ([22]; first compound 0.03162 µM)?
**A.** Its relative viability is 1.02.

**Q.** And the relative viability ([22]; first compound 0.3162 µM)?
**A.** Its relative viability is 0.847.

**Q.** And the relative viability ([23]; first compound 0.01 µM)?
**A.** Its relative viability is 0.33.

**Q.** What about the relative viability ([23]; first compound 0.03162 µM) of the same compound?
**A.** Its relative viability is 0.342.

**Q.** What about the relative viability ([23]; first compound 0.3162 µM) of the same compound?
**A.** Its relative viability is 0.29.

**Q.** What about the relative viability ([24]; first compound 0.01 µM) of the same compound?
**A.** The relative viability was 0.946.

**Q.** What about the relative viability ([24]; first compound 0.03162 µM) of the same compound?
**A.** Its relative viability is 0.831.

**Q.** What about the relative viability ([24]; first compound 0.3162 µM) of the same compound?
**A.** Its relative viability is 0.856.
